Measurements published in patent US6375928B1, “Neutrophil stimulating peptides” (Peptech Limited, priority 1990, dated 2002).
“Also recorded” adds a separate entry of the source.

Experiments:
neutrophils [1] = experiment: Neutrophil degranulation: Vitamin B12 binding protein release (specific granules); format: cell-based; details: for Vitamin B12 Binding Protein, Exp. 1 / Vitamin B12 Binding Protein, Exp. 2 / Vitamin B12 Binding Protein, Exp. 3 / Vitamin B12 Binding Protein, Exp. 4: in the presence of CytoB
neutrophils [2] = experiment: Neutrophil random migration out of wells in agarose; format: cell-based
From the text: Migration of cells is an important property by which cells reach infection sites. Their accumulation at these sites is also dependent on the capacity of inflammatory mediators to inhibit their migration out of the sites.

human neutrophils [3] = experiment: Chemiluminescence assay: priming of neutrophils for F-met-leu-phe response (respiratory burst); format: cell-based; details: peptide alone
human neutrophils [4] = experiment: as above; format: cell-based; details: for lucigenin dependent chemiluminescence, peak of response: 20 min pretreatment before f-met-leu-phe; for chemiluminescence (repeat experiment, Table 3): peptide + fMLP
Protocol: Purified human neutrophils were pretreated with peptide for 20 minutes before the addition of f-met-leu-phe. The lucigenin dependent chemiluminescence response, which reflects superoxide production, was then measured. The results obtained are set out in Table 2 and are expressed as mV of lucigenin dependent chemiluminescence and represent the maximal cell activity attained.
Results are expressed as mV of lucigenin dependent chemiluminescence and represent peak of response i.e. the maximal cell activity attained.

neutrophils [5] = experiment: Neutrophil degranulation: β-glucuronidase release (azurophilic granules); format: cell-based; details: for β-glucuronidase release, Exp. 1 / β-glucuronidase release, Exp. 2 / β-glucuronidase release, Exp. 3 / β-glucuronidase release, Exp. 4: in the presence of CytoB
neutrophils [6] = experiment: Superoxide formation, cytochrome reduction assay; format: cell-based
From the text: The effect of peptides 308 and 309 (SEQ ID NOs. 10 & 11) on superoxide formation was examined by the cytochrome reduction assay, according to the procedure of Ferrante, 1989 (Infection and Immunity), 57: 2115-2122). The results, expressed as n moles of O2/5×10^5 cells as set out in Table 6.

neutrophils [7] = experiment: Chemotactic properties, neutrophil migration under agarose; format: cell-based
Protocol: 5 μl of neutrophils (2×10^5 cells) were added to the inner well, with chemotactic agent or control medium added to the outer wells. Migration at various time intervals was then measured.

P. falciparum = experiment: Ability of peptide-stimulated neutrophils to inhibit in vitro growth of malaria parasites; format: cell-based; details: neutrophils incubated with peptide 37° C. 30 minutes; thawed normal, normal and immune serum (FIG. 5)
Protocol: The ability of neutrophils stimulated with peptides 418 and 419 (SEQ ID Nos. 17 & 18) to inhibit in vitro growth of malaria parasites was assessed.
Briefly, neutrophils were incubated with peptides 418 and 419 (SEQ ID NOs. 17 & 18) at 37° C. for 30 minutes and then washed with HBSS. The neutrophils were then added to a culture of red blood cells infected with P. falciparum. The cultures were then examined microscopically for evidence of parasite death.

ICAM = experiment: Induction of ICAM on human umbilical vein endothelial cells (HUVEC); format: cell-based; details: peptide 1 mg, four hours at 37° C. (FIG. 7)
Protocol: Peptide 419 (SEQ ID NO. 18) was tested for its ability to induce ICAM using the following procedure.
The cells were then washed extensively with PBS containing Ca^++ and Mg^++ and fixed ([…] 0.025% guteraldehyde, overnight, 4° C.). The cells were again washed, and incubated with anti-ICAM antibody (84H10) for 1 hr at room temperature. The cells were washed and incubated for a further 1 hr at room temperature in the presence of rabbit anti-mouse Ig-HRP. Surface expression of Icam was then quantitated using the ABTS substrate by absorption at OD405 nm.

Pseudomonas aeruginosa = experiment: Pseudomonas experiment: chronic lung infection in mice; format: in vivo; details: female Swiss mice, chronic Pa lung infection; 0.5 mg peptide tail-vein each day for 3 days from day 12; n=4; p<0.05 vs carrier (5.25)
Protocol: Chronic lung infection by Pseudomonas aeruginosa (Pa) is common in cystic fibrosis. […] The present inventors reasoned that pre-sensitising neutrophils with TNF intravascularly, prior to their entry into the lung, may overcome this problem. […] The ability of i.v.-injected 419 (SEQ ID NO. 18) to protect against chronic lung injury induced by Pseudomonas was tested. Chronic lung infections were established in 120 14 week female Swiss mice by introducing the bacteria suspended in agar beads (<200 μm diameter) into the lung. Mice were anaesthetised and 30 μl of bead suspension introduced via a polyethylene cannula into the right bronchus through a small incision between the tracheal rings. After recover, animals (n=20) developed a chronic infection followed for at least 10-14 days. Control animals included: sham-operated (n=2); and those inoculated with sterile beads (n=6) or with beads containing fresh, heat-killed Pa (n=5).

monocytes = experiment: Priming of monocytes for a respiratory burst (chemiluminescence); format: cell-based; details: 10^6 monocytes/tube/ml, 30 min pre-incubation 37° C.
Protocol: Peptide 419 (SEQ ID NO. 18) was assayed for its ability to prime monocytes for a respiratory burst. This assay was conducted essentially as described above for neutrophils except that the cells were cultured for 24 hours prior to assay.

[8] = peptide 100 μg/10^6 cells (or HBSS) + fMLP
[9] = peptide 100 μg/10^6 cells, no fMLP
[10] = towards agent well, 1 × 10^−7 M fMLP, peptide, or 10^3 U/ml TNFα, 2×10^5 neutrophils
[11] = with fMLP, 419 100 μg/10^6 monocytes, 50 U TNF or no pre-treatment
[12] = without fMLP, 419 100 μg/10^6 monocytes or 50 U TNF

G L Y L I Y S Q V L F K G Q G (GLYLIYSQVLFKGQG) [Peptide 308]
release from specific granules (Vitamin B12 binding protein), in words (neutrophils [1]; absence of fMLP): decreased the release | Vitamin B12 Binding Protein, Exp. 1 (neutrophils [1]; [8]): 35.81 | Vitamin B12 Binding Protein, Exp. 2 (neutrophils [1]; [8]): 27.59 | Vitamin B12 Binding Protein, Exp. 3 (neutrophils [1]; [8]): 26.55 | Vitamin B12 Binding Protein, Exp. 4 (neutrophils [1]; [8]): 21.51 | Vitamin B12 Binding Protein, Exp. 1 (neutrophils [1]; [9]): 2.00 | Vitamin B12 Binding Protein, Exp. 2 (neutrophils [1]; [9]): 2.08 | Vitamin B12 Binding Protein, Exp. 3 (neutrophils [1]; [9]): 5.70 | Vitamin B12 Binding Protein, Exp. 4 (neutrophils [1]; [9]): 2.25 | release from specific granules (Vitamin B12 binding protein), in words (neutrophils [1]; presence of fMLP): still apparent following stimulation with fMLP | effect on neutrophil random migration (in words) (neutrophils [2]): potent inhibitors of neutrophil migration | Inhibition of Migration (neutrophils [2]; 10 μg/10^6 cells): 0% | Inhibition of Migration (neutrophils [2]; 100 μg/10^6 cells): 100% | chemiluminescence (repeat experiment, Table 3) (human neutrophils [3]; 10 μg/10^6 cells): 1.00 mV | chemiluminescence (repeat experiment, Table 3) (human neutrophils [3]; 100 μg/10^6 cells): 11.76 mV | neutrophil stimulating activity / stimulation of neutrophil respiratory burst (in words) (human neutrophils [4]): neutrophil stimulating activity | priming of neutrophils for the respiratory burst associated with f-met-leu-phe treatment (in words) (human neutrophils [4]): found to prime human neutrophils for the respiratory burst; also recorded: particularly potent primer of neutrophils | lucigenin dependent chemiluminescence, peak of response (human neutrophils [4]; peptide 1 μg/10^6 cells): 0.91 mV | lucigenin dependent chemiluminescence, peak of response (human neutrophils [4]; peptide 10 μg/10^6 cells): 4.80 mV | lucigenin dependent chemiluminescence, peak of response (human neutrophils [4]; peptide 100 μg/10^6 cells): 49.52 mV | chemiluminescence (repeat experiment, Table 3) (human neutrophils [4]; 10 μg/10^6 cells): 2.74 mV | chemiluminescence (repeat experiment, Table 3) (human neutrophils [4]; 100 μg/10^6 cells): 28.56 mV | release from azurophilic granules (β-glucuronidase), in words (neutrophils [5]; absence of fMLP): decreased the release | β-glucuronidase release, Exp. 1 (neutrophils [5]; [8]): 17.57% | β-glucuronidase release, Exp. 2 (neutrophils [5]; [8]): 28.86% | β-glucuronidase release, Exp. 3 (neutrophils [5]; [8]): 17.86% | β-glucuronidase release, Exp. 4 (neutrophils [5]; [8]): 18.20% | β-glucuronidase release, Exp. 1 (neutrophils [5]; [9]): 0.8% | β-glucuronidase release, Exp. 2 (neutrophils [5]; [9]): 0.65% | β-glucuronidase release, Exp. 3 (neutrophils [5]; [9]): 2.76% | β-glucuronidase release, Exp. 4 (neutrophils [5]; [9]): 0.72% | release from azurophilic granules (β-glucuronidase), in words (neutrophils [5]; presence of fMLP): still apparent following stimulation with fMLP | superoxide formation (neutrophils [6]; peptide + fMLP, 10 μg/5 × 10^5 cells): 5.00 n moles of O2/5×10^5 cells | superoxide formation (neutrophils [6]; peptide + fMLP, 100 μg/5 × 10^5 cells): 6.729 n moles of O2/5×10^5 cells | superoxide formation (neutrophils [6]; peptide alone, 10 μg/5 × 10^5 cells): 2.78 n moles of O2/5×10^5 cells | superoxide formation (neutrophils [6]; peptide alone, 100 μg/5 × 10^5 cells): 4.892 n moles of O2/5×10^5 cells | chemotactic properties (in words) (neutrophils [7]): strongly chemotactic | Migration distance at 1.5 h, Agent (neutrophils [7]; [10]): 0.66 mm | Migration distance at 2.5 h, Agent (neutrophils [7]; [10]): 1.41 mm

P S T H V L I T H T I (PSTHVLITHTI) [Peptide 419]
neutrophil stimulating activity / stimulation of neutrophil respiratory burst (in words) (human neutrophils [4]): neutrophil stimulating activity | Chemiluminescence mean + sem (human neutrophils [4]; 100 μg peptide, priming neutrophils for respiratory burst): 18.6 ± 0.5 mV | inhibition of in vitro growth of malaria parasites by stimulated neutrophils (in words) (P. falciparum): more effective than TNF | induction of ICAM surface expression (in words) (ICAM): does not induce the cell adhesion molecule ICAM | percentage peripheral consolidation, mean (se) (Pseudomonas aeruginosa): 0.25 (se 0.25) % | Peak mV Chemiluminescence, Mean ± S.D. (monocytes; [11]): 240.0 ± 32.527 mV | Peak mV Chemiluminescence, experiment 1 (monocytes; [11]): 263.0 mV | Peak mV Chemiluminescence, experiment 2 (monocytes; [11]): 217.0 mV | Peak mV Chemiluminescence, Mean ± S.D. (monocytes; [12]): 3.385 ± 1.365 mV | Peak mV Chemiluminescence, experiment 1 (monocytes; [12]): 2.42 mV | Peak mV Chemiluminescence, experiment 2 (monocytes; [12]): 4.35 mV
